# Source: US12325709B2, “Cannabinoid derivatives” (CANOPY GROWTH CORPORATION, priority 2019, dated 2025)
# Legend:
# human CB1 receptor = biological target: T1, human CB1 receptor (Homo sapiens, UniProt P21554); assay: CB1 radioligand competitive binding assay ([3H]CP 55,940 displacement); settings: for Selectivity CB1: fold difference in binding between CB1 and CB2, shown in column of receptor with higher affinity, 1.00 in both = about the same affinity
# T1 construct: host or cells: CHO-K1 (Chinese hamster ovary) cells, stably transfected; membranes prepared in house
# T1 sequence (P21554 whole entry): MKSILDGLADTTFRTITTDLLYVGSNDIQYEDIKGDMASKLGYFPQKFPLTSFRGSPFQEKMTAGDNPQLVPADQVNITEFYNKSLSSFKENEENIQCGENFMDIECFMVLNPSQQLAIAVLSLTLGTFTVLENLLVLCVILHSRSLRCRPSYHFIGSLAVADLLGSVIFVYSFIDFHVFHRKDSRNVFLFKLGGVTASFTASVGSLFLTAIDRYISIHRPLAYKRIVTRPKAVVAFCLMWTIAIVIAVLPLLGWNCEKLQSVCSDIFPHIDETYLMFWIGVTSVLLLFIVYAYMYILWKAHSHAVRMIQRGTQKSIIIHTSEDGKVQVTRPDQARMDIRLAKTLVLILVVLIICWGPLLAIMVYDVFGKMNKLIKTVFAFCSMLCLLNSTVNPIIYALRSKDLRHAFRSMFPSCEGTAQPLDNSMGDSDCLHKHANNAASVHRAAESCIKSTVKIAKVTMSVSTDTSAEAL
# human CB2 receptor = biological target: T2, human CB2 receptor (Homo sapiens, UniProt P34972); assay: CB2 radioligand competitive binding assay ([3H]CP 55,940 displacement); settings: for Selectivity CB2: fold difference in binding between CB1 and CB2, shown in column of receptor with higher affinity, 1.00 in both = about the same affinity
# T2 construct: host or cells: CHO-K1 (Chinese hamster ovary) cells, stably transfected; membranes prepared in house
# T2 sequence (P34972 whole entry): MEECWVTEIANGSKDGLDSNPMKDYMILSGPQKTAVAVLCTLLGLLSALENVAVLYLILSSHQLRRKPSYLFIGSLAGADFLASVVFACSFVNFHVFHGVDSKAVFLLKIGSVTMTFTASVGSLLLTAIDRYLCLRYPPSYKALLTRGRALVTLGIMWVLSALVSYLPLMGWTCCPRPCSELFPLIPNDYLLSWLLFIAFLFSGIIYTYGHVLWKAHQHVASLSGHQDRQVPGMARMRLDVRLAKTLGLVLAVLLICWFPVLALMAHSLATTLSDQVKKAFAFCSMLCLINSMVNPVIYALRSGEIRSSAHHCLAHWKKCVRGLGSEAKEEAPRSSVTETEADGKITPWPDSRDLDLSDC
# Experimental: Compounds of the present disclosure were tested for CB1 receptor binding affinity and for CB2 receptor binding affinity. As used herein, “binding affinity” is represented by the IC50 value, which was experimentally determined as described herein. The lower the IC50 value the higher the binding affinity.
# The membranes were prepared from CHO-K1 (Chinese hamster ovary) cells stably transfected with the human CB2 receptor (Cat. #ES-111-C; Perkin Elmer, Boston, MA). The cells were grown adherently and maintained in Ham's F12 medium containing 10% fetal bovine serum (FBS), penicillin, streptomycin and geneticin (G418) at 37° C. in a humid atmosphere of 5% CO2 following the manufacturer's instructions.
# For membrane preparation the cells were washed with PBS and scraped off the plates in cold homogenization buffer (25 mM HEPES (pH 7.4), 2 mM EDTA) containing protease inhibitor cocktail (Sigma Cat. #P8340). The cell suspension was homogenized with a Pro-PK-01200D Polytron Homogenizer (Pro Scientific) and then centrifuged for 30 min at 120,000×g. The supernatant was discarded and the pellet was re-suspended in the homogenization buffer and stored at −80° C. until the time of use.
# In this experiment, 3H radiolabeled CP 55,940, i.e. [3H]CP 55,940 (Perkin Elmer, Boston, MA), was used as a radioligand for the CB2 receptor to determine the binding affinity of compounds for the CB2 receptor (Scheme 3; above).
# The competition binding experiments (single dose and dose-response) were performed by incubating 0.6 nM of [3H]CP55,940 (specific activity 101 Ci/mmol, Perkin Elmer) and different concentrations of compounds disclosed herein with membranes prepared as above from CHO-K1 cells expressing human CB2 receptor (1 μg of protein/well), 50 mM Tris-HCl (pH 7.4), 5 mM MgCl2, 1 mM CaCl2, and 2 mg/mL BSA.
# For the dose-response experiments the test compounds were sequentially diluted to provide the desired concentration range for the IC50 determination. In each case the compounds were pre-incubated with the membrane for 20 min, before adding the radioligand.
# After incubation with the radioligand for 60 min at 37° C., the incubation was terminated by rapid filtration of assay mixture through MultiScreen®HTS^+ 96-well filter plates (Millipore, Cat. #MSFCNXB), pre-soaked for 60 min with 50 mM Tris-HCl (pH 7.4) containing 0.33% polyethylenimine (PEI). The nonspecific binding (NSB) was determined in the presence of 10 μM unlabelled CP55,940. After drying the filter plate at 50° C. for at least 60 min, the filter-bound radioactivity was determined by scintillation spectrometry using the 1450 MicroBeta Plate Counter (Perkin Elmer, Boston, MA).
SMILES,IC50 (human CB1 receptor),IC50 (human CB2 receptor),Selectivity CB2 (human CB2 receptor),Selectivity CB1 (human CB1 receptor)
"CCCc1c(CN(C)C(=O)OC)c(O)c(C2C=C(C)CCC2)c(O)c1CN(C)C(=O)OC (stereo not shown) [59′c, dimethyl ((2,6-dihydroxy-5′-methyl-4-propyl-1′,2′,3′,4′-tetrahydro-[1,1′-biphenyl]-3,5-diyl)bis(methylene))bis(methylcarbamate)]",1 to 4.99 µM,100 to 990 nM,3.25 fold,–
"CCCCCc1cc(O)c(C2C=C(C)CCC2)c(O)c1C(=O)NC (stereo not shown) [Compound 1c, 2,6-dihydroxy-N,5′-dimethyl-4-pentyl-1′,2′,3′,4′-tetrahydro-[1,1′-biphenyl]-3-carboxamide]",> 5 µM,1000 to 4990 nM,3.20 fold,–
"C=C(C)[C@@H]1CCC(C)=C[C@H]1c1c(O)cc(CCCCC)c(C(=O)NC)c1O [Compound 1d, 2,6-dihydroxy-N,5′-dimethyl-4-pentyl-2′-(prop-1-en-2-yl)-1′,2′,3′,4′-tetrahydro-[1,1′-biphenyl]-3-carboxamide]",1 to 4.99 µM,100 to 990 nM,1.26 fold,–
"C=C(C)[C@@H]1CCC(C)=C[C@H]1c1c(O)cc(CCCCC)c(C(=O)NCC)c1O [Compound 3d, N-ethyl-2,6-dihydroxy-5′-methyl-4-pentyl-2′-(prop-1-en-2-yl)-1′,2′,3′,4′-tetrahydro-[1,1′-biphenyl]-3-carboxamide]",1 to 4.99 µM,1000 to 4990 nM,1.80 fold,–
"CCCCCc1cc(O)c(C2C=C(C)CCC2)c(O)c1C(=O)NC1CC1 (stereo not shown) [Compound 6c, N-cyclopropyl-2,6-dihydroxy-5′-methyl-4-pentyl-1′,2′,3′,4′-tetrahydro-[1,1′-biphenyl]-3-carboxamide]",1 to 4.99 µM,< 100 nM,40.14 fold,–
"C=C(C)[C@@H]1CCC(C)=C[C@H]1c1c(O)cc(CCCCC)c(C(=O)NC2CC2)c1O [Compound 6d, N-cyclopropyl-2,6-dihydroxy-5′-methyl-4-pentyl-2′-(prop-1-en-2-yl)-1′,2′,3′,4′-tetrahydro-[1,1′-biphenyl]-3-carboxamide]",> 5 µM,1000 to 4990 nM,9.09 fold,–
"CCCCCc1cc(O)c(C2C=C(C)CCC2)c(O)c1C(=O)NC1CCCC1 (stereo not shown) [Compound 7c, N-cyclopentyl-2,6-dihydroxy-5′-methyl-4-pentyl-1′,2′,3′,4′-tetrahydro-[1,1′-biphenyl]-3-carboxamide]",0.1 to 0.99 µM,< 100 nM,188.10 fold,–
"C=C(C)[C@@H]1CCC(C)=C[C@H]1c1c(O)cc(CCCCC)c(C(=O)Nc2ccc(OC)cc2)c1O [Compound 11d, 2,6-dihydroxy-N-(4-methoxyphenyl)-5′-methyl-4-pentyl-2′-(prop-1-en-2-yl)-1′,2′,3′,4′-tetrahydro-[1,1′-biphenyl]-3-carboxamide]",1 to 4.99 µM,100 to 990 nM,3.11 fold,–
"CCCCCc1cc(O)c(C2C=C(C)CCC2)c(O)c1C(=O)NCc1ccccc1 (stereo not shown) [Compound 14c, N-benzyl-2,6-dihydroxy-5′-methyl-4-pentyl-1′,2′,3′,4′-tetrahydro-[1,1′-biphenyl]-3-carboxamide]",1 to 4.99 µM,< 100 nM,1300.00 fold,–
"C=C(C)C1CCC(C)=CC1c1c(O)cc(CCCCC)c(C(=O)NCc2ccccc2)c1O (stereo not shown) [Compound 14d, N-benzyl-2,6-dihydroxy-5′-methyl-4-pentyl-2′-(prop-1-en-2-yl)-1′,2′,3′,4′-tetrahydro-[1,1′-biphenyl]-3-carboxamide]",> 5 µM,1000 to 4990 nM,13.50 fold,–
"CCCCCc1cc(O)c(-c2cccc(C)c2)c(O)c1C(=O)NCc1cccnc1 [Compound 15a, 2,6-dihydroxy-3′-methyl-4-pentyl-N-(pyridin-3-ylmethyl)-[1,1′-biphenyl]-3-carboxamide]",> 5 µM,100 to 990 nM,17.62 fold,–
"CCCCCc1cc(O)c(C2C=C(C)CCC2)c(O)c1C(=O)NCc1cccnc1 (stereo not shown) [Compound 15c, 2,6-dihydroxy-5′-methyl-4-pentyl-N-(pyridin-3-ylmethyl)-1′,2′,3′,4′-tetrahydro-[1,1′-biphenyl]-3-carboxamide]",1 to 4.99 µM,< 100 nM,23.17 fold,–
"C=C(C)[C@@H]1CCC(C)=C[C@H]1c1c(O)cc(CCCCC)c(C(=O)NCc2cccnc2)c1O [Compound 15d, 2,6-dihydroxy-5′-methyl-4-pentyl-2′-(prop-1-en-2-yl)-N-(pyridin-3-ylmethyl)-1′,2′,3′,4′-tetrahydro-[1,1′-biphenyl]-3-carboxamide]",0.1 to 0.99 µM,100 to 990 nM,–,2.48 fold
"C=CCNC(=O)c1c(CCCCC)cc(O)c(C2C=C(C)CCC2)c1O (stereo not shown) [Compound 25c, N-allyl-2,6-dihydroxy-5′-methyl-4-pentyl-1′,2′,3′,4′-tetrahydro-[1,1′-biphenyl]-3-carboxamide]",1 to 4.99 µM,100 to 990 nM,16.53 fold,–
"CCCCCc1cc(O)c(C2C=C(C)CCC2)c(O)c1C(=O)N1CCn2cnnc2C1 (stereo not shown) [Compound 34c, (5,6-dihydro-[1,2,4]triazolo[4,3-a]pyrazin-7(8H)-yl)(2,6-dihydroxy-5′-methyl-4-pentyl-1′,2′,3′,4′-tetrahydro-[1,1′-biphenyl]-3-yl)methanone]",> 5 µM,> 5000 nM,1.00 fold,1.00 fold
"CCCCCc1cc(O)c(C2C=C(C)CCC2)c(O)c1C(=O)N1CCN(S(C)(=O)=O)CC1 (stereo not shown) [Compound 37c, (2,6-dihydroxy-5′-methyl-4-pentyl-1′,2′,3′,4′-tetrahydro-[1,1′-biphenyl]-3-yl)(4-(methylsulfonyl)piperazin-1-yl)methanone]",> 5 µM,100 to 990 nM,66.67 fold,–
"CCCCCc1cc(O)c(-c2cccc(C)c2)c(O)c1C(=O)N1CCOCC1 [Compound 39a, (2,6-dihydroxy-3′-methyl-4-pentyl-[1,1′-biphenyl]-3-yl)(morpholino)methanone]",> 5 µM,> 5000 nM,3.70 fold,–
"CCCCCc1cc(O)c(C2C=C(C)CCC2)c(O)c1C(=O)N1CCOCC1 (stereo not shown) [Compound 39c, (2,6-dihydroxy-5′-methyl-4-pentyl-1′,2′,3′,4′-tetrahydro-[1,1′-biphenyl]-3-yl)(morpholino)methanone]",1 to 4.99 µM,1000 to 4990 nM,3.20 fold,–
"C=C(C)[C@@H]1CCC(C)=C[C@H]1c1c(O)cc(CCCCC)c(C(=O)N2CCOCC2)c1O [Compound 39d, (2,6-dihydroxy-5′-methyl-4-pentyl-2′-(prop-1-en-2-yl)-1′,2′,3′,4′-tetrahydro-[1,1′-biphenyl]-3-yl)(morpholino)methanone]",> 5 µM,1000 to 4990 nM,3.49 fold,–
"CCCCCc1cc(O)c(C2C=C(C)CCC2)c(O)c1C(=O)N1CCCC1 (stereo not shown) [Compound 41c, (2,6-dihydroxy-5′-methyl-4-pentyl-1′,2′,3′,4′-tetrahydro-[1,1′-biphenyl]-3-yl)(pyrrolidin-1-yl)methanone]",> 5 µM,1000 to 4990 nM,13.31 fold,–
"CCCCCc1cc(O)c(C2C=C(C)CCC2)c(O)c1C(=O)NCc1ccccc1Br (stereo not shown) [Compound 57c, N-(2-bromobenzyl)-2,6-dihydroxy-5′-methyl-4-pentyl-1′,2′,3′,4′-tetrahydro-[1,1′-biphenyl]-3-carboxamide]",1 to 4.99 µM,< 100 nM,21.67 fold,–
